Data taken from patent US6444454B1, “Method for increasing the gene expression of saccharose synthase” (Forschungszentrum Julich GmbH, priority 1997, dated 2002).

Tests used:
Format in all cases: biochemical
Saccharose Synthase [1] = molecular target: T1, Saccharose Synthase (Solanum tuberosum, UniProt P10691); assay: acceptance of different NDP's in saccharose splitting; conditions: NDP 1.6 mM, saccharose 500 mM, 0.035 U enzyme, pH 7.6, 30° C.
T1 construct: made in house; host or cells: Saccharomyces cerevisiae strain 22574d, plasmid pDRSuSy (pDR195, proton-ATPase promoter)
T1 sequence (P10691 whole entry): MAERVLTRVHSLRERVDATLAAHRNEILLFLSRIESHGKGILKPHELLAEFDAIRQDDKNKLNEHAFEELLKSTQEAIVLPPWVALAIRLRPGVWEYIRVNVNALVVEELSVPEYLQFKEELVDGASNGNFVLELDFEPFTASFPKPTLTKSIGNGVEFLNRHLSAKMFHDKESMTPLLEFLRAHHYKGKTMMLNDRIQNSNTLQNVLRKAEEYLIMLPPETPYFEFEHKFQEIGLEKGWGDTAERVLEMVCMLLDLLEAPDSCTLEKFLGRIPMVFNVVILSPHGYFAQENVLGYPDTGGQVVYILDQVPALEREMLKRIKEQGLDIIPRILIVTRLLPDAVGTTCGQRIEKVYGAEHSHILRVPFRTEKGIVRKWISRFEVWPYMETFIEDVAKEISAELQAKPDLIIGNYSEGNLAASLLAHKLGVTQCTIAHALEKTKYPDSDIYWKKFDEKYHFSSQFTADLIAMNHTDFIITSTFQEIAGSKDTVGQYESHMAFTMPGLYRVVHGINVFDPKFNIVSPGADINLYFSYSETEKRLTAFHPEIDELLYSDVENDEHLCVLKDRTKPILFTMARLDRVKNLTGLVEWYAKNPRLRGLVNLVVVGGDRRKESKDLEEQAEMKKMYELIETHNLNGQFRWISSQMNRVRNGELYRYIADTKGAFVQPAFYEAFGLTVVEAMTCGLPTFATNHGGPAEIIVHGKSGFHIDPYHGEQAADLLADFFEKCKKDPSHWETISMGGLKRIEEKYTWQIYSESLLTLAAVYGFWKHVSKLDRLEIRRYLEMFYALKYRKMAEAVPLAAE
Experimental: Initially the acceptance of the recombinant saccharose synthase for different NDP's in saccharose splitting was investigated. The reaction conditions was as follows: [table] The reactions with different NDP's were carried out at a temperature of 30° C.

Saccharose Synthase [2] = molecular target: T1, Saccharose Synthase; assay: splitting of disaccharides with UDP; conditions: disaccharide 250 mM, UDP 2 mM, 24 hours at 30° C.
Experimental: For the synthase of UDP-2-Desoxyglucose and UDP-N-Acetylglucoseamine, the following reaction composition is used. [table] The reaction mixture is incubated for 24 hours at 30° C. and the reaction stopped at 95° over a period of 5 minutes.

Saccharose Synthase [3] = molecular target: T1, Saccharose Synthase; assay: Michaelis-Menten-Kinetics of saccharose splitting with UDP; conditions: UDP 1.6 mM, 14 mU enzyme, pH 7.6, 30° C., 10 minutes
Experimental: In addition, the Michaelis-Menten-Kinetics of the saccharose splitting with the recombinant saccharose synthase with UDP as a function of saccharose was determined.
The reaction condition for this were as follows:
The reactions were carried out at a temperature of 30° C.; the reaction time amounted in each case to 10 minutes.
In FIG. 5, the Michaelis-Menten-Kinetics of saccharose synthase as a function of saccharose concentration is shown. […] The concentrations of more than 600 mM saccharose substrate excess limiting sets in.

## Cc1cn([C@H]2C[C@H](O)[C@@H](COP(=O)(O)OP(=O)(O)O)O2)c(=O)[nH]c1=O [TDP]
Saccharose Synthase [1]
  acceptance of NDP's in saccharose splitting as a function of reaction time (sequence): UDP>ADP=TDP>CDP>GDP

## N-acetyl saccharosamine
Saccharose Synthase [2]; 1.25 U of the enzyme
  disaccharide converted: 12.4%

## Nc1ccn([C@@H]2O[C@H](COP(=O)(O)OP(=O)(O)O)[C@@H](O)[C@H]2O)c(=O)n1 [CDP]
Saccharose Synthase [1]
  acceptance of NDP's in saccharose splitting as a function of reaction time (sequence): UDP>ADP=TDP>CDP>GDP

## OC[C@H]1O[C@@](CO)(O[C@H]2O[C@H](CO)[C@@H](O)[C@H](O)[C@H]2O)[C@@H](O)[C@@H]1O [saccharose]
Saccharose Synthase [3]
  Km: 66 mM
  saccharose concentration at which substrate excess limiting sets in: more than 600 mM

## OC[C@H]1OC(CO)(O[C@@H]2C[C@@H](O)[C@H](O)[C@@H](CO)O2)[C@@H](O)[C@@H]1O (stereo partly drawn) [two desoxy saccharose, 2-desoxysaccharose]
Saccharose Synthase [2]; 0.11 U saccharose synthase
  disaccharide split off: 5.9%

## O=c1ccn([C@@H]2O[C@H](COP(=O)(O)OP(=O)(O)O)[C@@H](O)[C@H]2O)c(=O)[nH]1 [UDP]
Saccharose Synthase [1]
  acceptance of NDP's in saccharose splitting as a function of reaction time (sequence): UDP>ADP=TDP>CDP>GDP

## Nc1ncnc2c1ncn2[C@@H]1O[C@H](COP(=O)(O)OP(=O)(O)O)[C@@H](O)[C@H]1O [ADP]
Saccharose Synthase [1]
  acceptance of NDP's in saccharose splitting as a function of reaction time (sequence): UDP>ADP=TDP>CDP>GDP

## Nc1nc2c(ncn2[C@@H]2O[C@H](COP(=O)(O)OP(=O)(O)O)[C@@H](O)[C@H]2O)c(=O)[nH]1 [GDP]
Saccharose Synthase [1]
  acceptance of NDP's in saccharose splitting as a function of reaction time (sequence): UDP>ADP=TDP>CDP>GDP
